According to patent publication US20130259935A1, “PHARMACEUTICAL COMPOSITIONS COMPRISING GLIMEPIRIDE AND POLYETHYLENE GLYCOL CASTOR OIL” (LEK PHARMACEUTICALS D.D., priority 2010, published 2013):
In brackets after ≈: the same amount, converted by molar mass.

Assay: Solubility of glimepiride, pH-dependent
Format: physicochemical
Conditions: for solubility: phosphate buffer, thermodynamic from solid
Experimental: Glimepiride has very low and pH-dependent solubility. […] In media with pH around 7 the solubility of glimepiride is 0.001 mg/mL. At a pH 8, the solubility of glimepiride only slightly increases to 0.03 mg/mL. […] Being insoluble according to the present invention means that the solubility in water is lower than 10 mg/mL. […] Solubility as meant herein is measured using USP apparatus 2 with agitation at 75 RPM. The dissolution medium is phosphate buffer maintained at 37° C. Dissolution as meant herein is measured using HPLC.

CCC1=C(C)CN(C(=O)NCCc2ccc(S(=O)(=O)NC(=O)N[C@H]3CC[C@H](C)CC3)cc2)C1=O [glimepiride, Glimepiride]
solubility (37 °C, pH 8, aqueous buffer): 30 µg/mL (≈ 61.1 µM)
solubility (aqueous buffer, acidic medium, 37° C.): < 1 µg/mL
solubility in water (in words) (water, insoluble means lower than 10 mg/mL): insoluble in water
